Source: patent US20210255193A1, “LYSINE REACTIVE PROBES AND USES THEREOF” (The Scripps Research Institute, priority 2017, published 2021)

What was measured:
Assay in all cases: competitive isoTOP-ABPP
Format in all cases: binding
[1] = biological target: T1, TPD52L2 Tumor protein D54 (Homo sapiens, UniProt O43399)
T1 construct: isoTOP-ABPP experiments performed in cell lysates (in vitro); endogenous in cells; host or cells: MDA-MB-231 soluble lysate
Protocol: (§1) In vitro covalent fragment treatment for isoTOP-ABPP. All compounds were made up as solutions in DMSO (100×) and were used at a final concentration of 50 μM for activated esters and 100 μM for guanidinylating agents. For each profiling sample, 0.5 ml of lysate was treated with 5 μl of the 100× compound stock solution or 5 μl of DMSO. Samples were treated with activated esters for
(§2) STP-alkyne labeling and click chemistry. For concentration-dependent reactivity measurements by isoTOP-ABPP, 0.5 ml proteome aliquots were treated at ambient temperature with 1 mM STP-alkyne 1 (5 μl of 100 mM stock in DMSO) and 0.1 mM STP alkyne 1 (5 μl of 10 mM stock in DMSO), respectively. For competitive isoTOP-ABPP, after in vitro fragment treatment (detailed above), the samples were labeled for 1 h at ambient temperature with 0.1 mM STP-alkyne 1 (5 μl of 10 mM stock in DMSO). Samples were conjugated by copper-mediated azide-alkyne cycloaddition (CuAAC) to either the light (1 mM STP-alkyne or fragment treated) or heavy (0.1 mM STP-alkyne or DMSO treated) TEV tags (10 μl of 5 mM stocks in DMSO, final concentration=100 μM) using tris(2-carboxyethyl)phosphine hydrochloride
(§3) R value calculation and processing. The ratios of light and heavy MS1 peaks for each unique peptide were quantified with a CIMAGE software using default parameters (3 MS1 acquisitions per peak and signal to noise threshold set to 2.5). For reactivity measurements by isoTOP-ABPP, the R value was calculated from the ratio of MS1 peak areas, comparing the 1 mM STP alkyne sample (light TEV tag) with the 0.1 mM STP alkyne sample (heavy TEV tag). For competitive isoTOP-ABPP, the R value was calculated from the ratio of MS1 peak areas, comparing the DMSO treated sample (heavy TEV tag) with the compound treated sample (light TEV tag). […] Ratios for unique peptide entries are calculated for each experiment; overlapping peptides with the same modified lysine (for example, different charge states, MudPIT chromatographic steps or tryptic termini) are grouped together and the median ratio is reported as the final ratio (R). The peptide ratios reported by CIMAGE were further filtered to ensure the removal or correction of low-quality ratios in each individual data set. The quality filters applied were the following: removal of half tryptic peptides; for ratios with high standard deviations from the median (90% of the median or above) the lowest ratio was taken instead of the median; removal of peptides with R=20 and only a single MS2 event triggered during the elution of the parent ion; manual annotation of all the peptides with ratios of 20, removing any peptides with low quality elution profiles that remained after the previous curation steps (only done for competitive isoTOP-ABPP).
(§4) Cross-data processing for fragment screening. For compound treated samples, biological replicates of the same condition were averaged, if the standard deviation was below 60% of the mean; otherwise, for lysines with at least one R value <4 for a particular compound, the lowest value of the ratio set was taken. For lysines, where all R values for a particular compound were ≥4, the average was reported. For peptides containing several possible modified lysines, the lysine with the highest number of quantification events was used for analysis and the remaining, redundant peptides were reported as alternative modification sites. Peptides included in the aggregate dataset (those used for further bioinformatics and statistical analyses) were required to have been quantified in 2 experiments for competitive isoTOP-ABPP. Lysines were categorized as liganded, if they had at least one ratio R≥4 (hit fragments). For liganded lysines with R=20 for all liganding events, lysines were required to have been quantified with R=20 in two separate experiments and were further required to have been quantified with R<20 in one additional experiment.

[2] = biological target: T2, FECH Ferrochelatase, mitochondrial (Homo sapiens, UniProt P22830)
T2 construct: isoTOP-ABPP experiments performed in cell lysates (in vitro); endogenous in cells; host or cells: soluble proteome of human cancer cell lines (MDA-MB-231; Ramos and Jurkat also prepared)
T2 sequence (P22830 55-423): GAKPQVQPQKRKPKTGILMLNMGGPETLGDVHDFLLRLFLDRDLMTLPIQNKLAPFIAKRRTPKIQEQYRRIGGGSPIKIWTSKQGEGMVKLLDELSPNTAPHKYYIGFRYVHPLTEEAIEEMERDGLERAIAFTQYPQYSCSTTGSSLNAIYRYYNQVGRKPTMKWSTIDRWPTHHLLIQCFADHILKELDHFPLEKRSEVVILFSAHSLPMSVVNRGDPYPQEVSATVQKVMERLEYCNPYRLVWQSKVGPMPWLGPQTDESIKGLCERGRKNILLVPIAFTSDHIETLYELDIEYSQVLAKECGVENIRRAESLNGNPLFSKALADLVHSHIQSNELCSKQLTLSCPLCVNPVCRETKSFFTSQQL
How it was run: (§5)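 Cell lysate treated in vitro with fragments (50 μM activated esters, 100 μM guanidinylating agents) or DMSO, labelled 1 h at ambient temperature with 0.1 mM STP-alkyne, CuAAC-tagged with light/heavy TEV tags, analysed by MS. R = DMSO/compound MS1 peak-area ratio; lysines with R≥4 called liganded.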

EEF2 Elongation factor 2 = biological target: T3, EEF2 Elongation factor 2 (Homo sapiens, UniProt P13639)
T3 construct: isoTOP-ABPP experiments performed in cell lysates (in vitro); endogenous in cells; host or cells: soluble proteome of human cancer cell lines (MDA-MB-231; Ramos and Jurkat also prepared)
How it was run: as §5

[3] = biological target: T4, MRPS24 28S ribosomal protein S24, mitochondrial (Homo sapiens, UniProt Q96EL2)
T4 construct: isoTOP-ABPP experiments performed in cell lysates (in vitro); endogenous in cells; host or cells: soluble proteome of human cancer cell lines (MDA-MB-231; Ramos and Jurkat also prepared)
How it was run: as §5

[4] = biological target: T5, PSME3 Proteasome activator complex subunit 3 (Homo sapiens, UniProt P61289)
T5 construct: isoTOP-ABPP experiments performed in cell lysates (in vitro); endogenous in cells; host or cells: soluble proteome of human cancer cell lines (MDA-MB-231, Ramos, Jurkat)
Protocol: as §1, §2, §3, §4

T1 sequence (O43399 whole entry): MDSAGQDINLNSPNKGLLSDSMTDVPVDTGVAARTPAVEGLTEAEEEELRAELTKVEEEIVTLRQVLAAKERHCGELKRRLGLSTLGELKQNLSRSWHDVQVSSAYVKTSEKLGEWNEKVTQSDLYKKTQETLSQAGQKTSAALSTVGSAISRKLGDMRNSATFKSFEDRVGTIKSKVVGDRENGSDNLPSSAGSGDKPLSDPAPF
T5 sequence (P61289 whole entry, one chain of several): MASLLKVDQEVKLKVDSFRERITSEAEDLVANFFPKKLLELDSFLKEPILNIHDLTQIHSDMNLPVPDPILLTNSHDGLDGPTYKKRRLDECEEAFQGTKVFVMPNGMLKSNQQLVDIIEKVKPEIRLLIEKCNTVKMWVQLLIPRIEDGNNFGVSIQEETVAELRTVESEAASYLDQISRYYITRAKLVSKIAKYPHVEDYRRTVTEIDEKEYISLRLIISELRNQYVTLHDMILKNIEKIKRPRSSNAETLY

Compound	isoTOP-ABPP ratio, lysine O43399_K90 ([1]; 50 uM_231_sol_in vitro)	isoTOP-ABPP ratio, lysine P22830_K304 ([2]; 50 uM_231_sol_in vitro)	isoTOP-ABPP ratio, lysine P13639_K235 (EEF2 Elongation factor 2; 50 uM_231_sol_in vitro)	isoTOP-ABPP ratio, lysine P13639_K318 (EEF2 Elongation factor 2; 50 uM_231_sol_in vitro)	isoTOP-ABPP ratio, lysine Q96EL2_K94 ([3]; 50 uM_231_sol_in vitro)	isoTOP-ABPP ratio, lysine P61289_K237 ([4]; 50 uM_231_sol_in vitro)	isoTOP-ABPP ratio, lysine O43399_K90 ([1]; 100 uM_231_sol_in vitro)	isoTOP-ABPP ratio, lysine P22830_K304 ([2]; 100 uM_231_sol_in vitro)	isoTOP-ABPP ratio, lysine P13639_K235 (EEF2 Elongation factor 2; 100 uM_231_sol_in vitro)	isoTOP-ABPP ratio, lysine P13639_K318 (EEF2 Elongation factor 2; 100 uM_231_sol_in vitro)	isoTOP-ABPP ratio, lysine Q96EL2_K94 ([3]; 100 uM_231_sol_in vitro)	isoTOP-ABPP ratio, lysine P61289_K12 ([4]; 100 uM_231_sol_in vitro)	isoTOP-ABPP ratio, lysine P61289_K237 ([4]; 100 uM_231_sol_in vitro)	also measured
O=C(Oc1ccc([N+](=O)[O-])cc1[N+](=O)[O-])C(c1ccccc1)(c1ccccc1)c1ccccc1 [fragment 42, 2,4-Dinitrophenyl 2,2,2-triphenylacetate]	–	–	–	–	–	–	–	–	–	–	–	–	–	isoTOP-ABPP ratio (R) at liganded lysine O43399_K90 ([1]; 50 uM, in vitro, sol, 231): 1.0; isoTOP-ABPP ratio (R) at liganded lysine P22830_K304 ([2]; 50 uM, in vitro, sol, 231): 1.0; isoTOP-ABPP ratio (R) at liganded lysine P13639_K235 (EEF2 Elongation factor 2; 50 uM, in vitro, sol, 231): 1.0; isoTOP-ABPP ratio (R) at liganded lysine P13639_K318 (EEF2 Elongation factor 2; 50 uM, in vitro, sol, 231): 1.0; isoTOP-ABPP ratio (R) at liganded lysine Q96EL2_K94 ([3]; 50 uM, in vitro, sol, 231): 1.5; isoTOP-ABPP ratio (R) at liganded lysine P61289_K12 ([4]; 50 uM, in vitro, sol, 231): 0.9; isoTOP-ABPP ratio (R) at liganded lysine P61289_K237 ([4]; 50 uM, in vitro, sol, 231): 0.9
O=C(ON1C(=O)CCC1=O)c1cc(C(F)(F)F)cc(C(F)(F)F)c1 [fragment 46, 3,5-Bis(trifluoromethyl)benzoic acid NHS ester]	1.4	0.9	1.3	1.1	1.0	0.9	–	–	–	–	–	–	–	isoTOP-ABPP ratio, lysine P61289_K12 ([4]; 50 uM_231_sol_in vitro): 0.7
COC(=O)NC(=NC(=O)OCC1c2ccccc2-c2ccccc21)n1cccn1 [fragment 49, N-Methoxycarbonyl-N′-9-fluorenylmethoxycarbonyl-pyrazole-1-carboxamidine]	–	–	–	–	–	–	2.9	5.3	6.2	2.0	3.0	0.8	0.8	–
CC(C)(C)OC(=O)N=C(NC(=O)OC(C)(C)C)n1cccn1 [fragment 50, reference compound]	–	–	–	–	–	–	2.2	2.3	7.5	1.8	2.2	0.7	0.9	–
NC(=O)c1cc(C(F)(F)F)cc(C(F)(F)F)c1 [fragment 51, reference compound]	1.0	0.8	0.9	0.9	0.9	0.7	–	–	–	–	–	–	–	–
